Experiment: xn = mol fraction of the nth substance listed

CCC(C)O (configuration not stated) + CCCCCC[n+]1ccn(C)c1.O=[N+]([O-])[O-]
100 kPa, x2 = 0
Conditions | viscosity [mPa·s]
293.15 K | 3.67
298.15 K | 3.04
303.15 K | 2.54
308.15 K | 2.13
313.15 K | 1.8
318.15 K | 1.54
323.15 K | 1.33

CCCCCC[n+]1ccn(C)c1.[Cl-] + CCCCCO
101 kPa
Conditions | viscosity [mPa·s]
293.15 K, x1 = 0.0088 | 4.33
293.15 K, x2 = 0.849 | 10.53
303.15 K, x1 = 0.0042 | 3.1
303.15 K, x1 = 0.0166 | 3.41
303.15 K, x2 = 0.1514 | 1675
313.15 K, x1 = 0.0042 | 2.37
313.15 K, x2 = 0.2971 | 259.6
313.15 K, x2 = 0.8012 | 8.12
323.15 K, x2 = 0 | 783
323.15 K, x2 = 0.8012 | 6.29
333.15 K, x2 = 0.7018 | 9.13

CCCC[N+]1(C)CCCCC1.F[P-](F)(F)(F)(F)F + CCCC[N+]1(C)CCCC1.F[P-](F)(F)(F)(F)F
102 kPa
Conditions | viscosity [mPa·s]
353.15 K, x1 = 0.5 | 154
383.15 K, x1 = 0.3 | 41

NC(N)=NCCC[C@H](N)C(=O)O + CCCC[N+](C)(CCCC)CCCC.[Cl-] + O
viscosity [mPa·s], 101.3 kPa
Conditions | 293.15 K | 298.15 K | 303.15 K | 308.15 K | 313.15 K
x1 = 0.0003636, x2 = 0.00072 | 1.06 | 0.94 | 0.85 | 0.76 | 0.69
x1 = 0.0003667, x2 = 0.001439 | 1.1 | 0.98 | 0.88 | 0.79 | 0.72
x1 = 0.0007271, x2 = 0.0007198 | 1.07 | 0.95 | 0.86 | 0.78 | 0.7
x1 = 0.0007335, x2 = 0.001438 | 1.11 | 0.99 | 0.89 | 0.8 | 0.73
x1 = 0.001088, x2 = 0.0007195 | 1.08 | 0.97 | 0.87 | 0.79 | 0.71
x1 = 0.001096, x2 = 0.001438 | 1.12 | 1 | 0.9 | 0.82 | 0.75
x1 = 0.001452, x2 = 0.0007192 | 1.1 | 0.98 | 0.88 | 0.8 | 0.72
x1 = 0.001464, x2 = 0.001437 | 1.13 | 1.01 | 0.91 | 0.83 | 0.76
x1 = 0.001809, x2 = 0.001437 | 1.15 | 1.02 | 0.92 | 0.84 | 0.77
x1 = 0.001816, x2 = 0.000719 | 1.11 | 0.99 | 0.89 | 0.81 | 0.73
x1 = 0.002177, x2 = 0.0007187 | 1.12 | 1 | 0.9 | 0.82 | 0.75
x1 = 0.002195, x2 = 0.001436 | 1.16 | 1.04 | 0.94 | 0.85 | 0.78
x1 = 0.002535, x2 = 0.0007185 | 1.13 | 1.02 | 0.92 | 0.84 | 0.76
x1 = 0.00256, x2 = 0.001436 | 1.17 | 1.05 | 0.95 | 0.87 | 0.79

CC[n+]1ccn(C)c1.O=S(=O)([O-])C(F)(F)C(F)F + CCCC[n+]1ccc(C)cc1.O=S(=O)([N-]S(=O)(=O)C(F)(F)F)C(F)(F)F
100 kPa
Conditions | viscosity [mPa·s]
293.15 K, x2 = 0.2211 | 111.1
293.15 K, x2 = 0.3324 | 106.5
293.15 K, x2 = 0.4432 | 101
293.15 K, x2 = 0.774 | 84.5
303.15 K, x2 = 0.3324 | 66.1
303.15 K, x2 = 0.9517 | 47.6
313.15 K, x2 = 0.0504 | 47.7
313.15 K, x2 = 0.112 | 47
313.15 K, x2 = 0.4432 | 41.7
313.15 K, x2 = 0.6631 | 37.5
323.15 K, x2 = 0.4432 | 29.2
333.15 K, x2 = 0.4432 | 21.5
333.15 K, x2 = 0.5529 | 20.3
333.15 K, x2 = 0.6631 | 19.5
343.15 K, x2 = 0.0504 | 18.2
353.15 K, x2 = 0.774 | 10.9
353.15 K, x2 = 0.8828 | 10.3

From the CheMixHub ionic liquid set
